Data published in patent publication US9469556B2, “Ballast water treatment system” (University of Strathclyde, priority 2009, dated 2016).

Test system: organisms in sea water
Experiment: ATP luminescence assay of sea samples treated with biocide dyes
Type: cell-based
Conditions: for biocidal properties in sea water (total ATP levels): Millport sea samples, different concentrations
Protocol: Required quantities of each biocide dye were added to the tubes containing the sea sample by means of sterile pipettes in order to give the desired concentrations.
50 mL of each seawater sample was centrifuged at 4,000 rpm for 30 minutes at room temperature. The supernatant was discarded, and the pellets (which may not be visible) were resuspended in 1 mL of ATP Buffer Mix by brisk mixing with a sterile pastette. 0.1 mL of detergent solution was added to each sample. Sample tubes were then placed in a water bath at 90° C. for exactly 5 minutes to lyse seawater organisms. Alternatively the seawater organisms (from 50 mL water) are captured on a 0.22 μm filter membrane and treated with the ATP Buffer Mix, as above.
As a negative control, sterilised seawater (filtered through 0.22 μm filter and/or autoclaved) was used. Where coloured agents were added to the samples, these were also added to the negative control at the same concentration.
One aliquot (0.1 mL) of ATP Assay Mix solution was thawed and added to a sterile transparent 5 mL luminometer tube. This was swirled and allowed to stand at room temperature to allow hydrolysis of endogenous ATP and decrease background.
Immediately after 5 minutes of being at 90° C., 0.1 mL of resuspended seawater sample was added to the reaction tube, swirled briskly for 5 seconds, and immediately measured using a tube luminometer using a 4 second read time.

Question: What does the source list for `CN(C)c1ccc(C(=C2C=CC(=[N+](C)C)C=C2)c2ccc(N(C)C)cc2)cc1` [Gentian Violet]?
Answer: biocidal properties in sea water (total ATP levels) (with and without incubation (FIG. 3.2)): effective biocidal properties; viability of organisms in sea water (as measured by ATP presence) (dyes used separately (FIG. 4.1)): incomplete reduction in viability

Question: For `O=C1OC2(c3ccccc31)c1cc(I)c(O)c(I)c1Oc1c2cc(I)c(O)c1I` [erythrosine], which “biocidal properties in sea water (total ATP levels)” value (overnight incubation, with and without light (60 w for 5 minutes) (FIG. 3.3)) is on record?
Answer: effective biocidal properties
